`CCOC(=O)C1=C(COCCNC(CC(=O)O)C(=O)O)NC(C)=C(C(=O)OC)C1c1ccccc1Cl` (stereo not shown) [formula (1)]: the melting point (usually the temperature, or range, at which the solid turns liquid) is 178 to 183 °C (dec.).

The record behind these values is patent US6600047B2, “Process for making amlodipine maleate” (Synthon BV, priority 2001, dated 2003).
